The target in experiment [1] is T1, human notum pectinacetyltransferase (Homo sapiens, UniProt Q6P988).
T1 construct: made in house; unpurified conditioned medium used
T1 sequence (Q6P988 20-496): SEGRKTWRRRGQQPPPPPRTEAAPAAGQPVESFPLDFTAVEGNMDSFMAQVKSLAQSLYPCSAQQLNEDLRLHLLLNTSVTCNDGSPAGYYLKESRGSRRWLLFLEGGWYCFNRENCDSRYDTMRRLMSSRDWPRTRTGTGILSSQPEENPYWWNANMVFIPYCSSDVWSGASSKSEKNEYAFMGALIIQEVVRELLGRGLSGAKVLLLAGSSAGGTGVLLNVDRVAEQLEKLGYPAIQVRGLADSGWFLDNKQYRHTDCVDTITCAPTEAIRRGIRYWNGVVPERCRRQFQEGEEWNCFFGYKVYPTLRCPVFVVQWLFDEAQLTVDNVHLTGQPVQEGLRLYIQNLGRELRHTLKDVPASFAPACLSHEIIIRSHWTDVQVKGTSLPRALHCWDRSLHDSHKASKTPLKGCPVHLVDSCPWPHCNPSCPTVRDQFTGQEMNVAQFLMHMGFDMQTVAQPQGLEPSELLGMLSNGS
The experiment is described as follows: Binding assay (OPTS esterase substrate, fluorimetric). Type of experiment: biochemical. Conditions: class symbols. As to the method:
Plasmid containing human notum pectinacetyltransferase in pcDNA3.1(+) vector was transfected into HEK (293 cells and clones were selecting by growing in presence of 400 ug/mL of G418. Condition media from these cells was used for the assay.

Experiment [2] has as its target T1, human notum pectinacetyltransferase. The experiment in a line: Reporter assay (CellSensor LEF/TCF-bla FreeStyle 293F cells, Wnt3a and notum conditioned media). Type of experiment: cell-based. Conditions: class symbols. On the technique in general: A reporter such as luciferase makes a cellular process visible.

For orientation: IC50 means the concentration at which inhibition is half-maximal. Read a low IC50 as greater potency in that assay. A word on the EC50: it is the concentration that produces a half-maximal response. Low readings indicate a more potent agent, high ones a less potent agent.

Regarding `O=C(O)C1CN(C(=O)c2cc3c(s2)-c2ccc(Cl)c(F)c2OC3)CC1c1cccs1` (centres unmarked), the half-maximal inhibitory concentration (IC50) in experiment [1] is less than 1000 nM. For the same compound, the EC50 in experiment [2] is less than 50 nM.

Compound `O=C(O)CNC(=O)c1cc2c(s1)-c1ccccc1CC2` gave an IC50 in experiment [1] of less than 100 nM. Moreover, the EC50 in experiment [2] is less than 50 nM.

In experiment [1], `O=C(O)c1cc2c(s1)-c1ccccc1OCC2` had an IC50 of less than 50 nM. The compound also registered an EC50 in experiment [2] of less than 50 nM.

Regarding `CC(=O)N1Cc2cc(C(=O)O)sc2-c2ccccc21`, the IC50 in experiment [1] was less than 2000 nM. In experiment [2], this compound returned an EC50 of less than 100 nM.

Take `O=C(O)c1cc2c(s1)-c1ccccc1CCC2`: the IC50 in experiment [1] was less than 1000 nM. Further, the EC50 in experiment [2] was less than 1000 nM.

For `Cc1ccc2c(c1Cl)CCc1cc(C(N)=O)sc1-2`, the IC50 in experiment [1] was less than 50 nM. Moreover, the EC50 in experiment [2] was less than 50 nM.

Take `Cc1ccc2c(c1Cl)CCc1cc(C(=O)O)sc1-2`: the IC50 in experiment [1] is less than 100 nM. Further, the EC50 in experiment [2] is less than 50 nM.

Consider `Cc1ccc2c(c1F)CCc1cc(C(N)=O)sc1-2`, for which the IC50 in experiment [1] is less than 50 nM. This compound also gave an EC50 in experiment [2] of less than 50 nM.

In experiment [1], `Cc1ccc2c(c1F)CCc1cc(C(=O)O)sc1-2` had an IC50 of less than 100 nM. In experiment [2], the EC50 is less than 50 nM.

`Cc1cc(F)c2c(c1)-c1sc(C(N)=O)cc1CC2` yielded an IC50 in experiment [1] of less than 50 nM. In experiment [2], this compound displayed an EC50 of less than 50 nM.

In experiment [1], `NC(=O)c1cc2c(s1)-c1ccc(Cl)c(Cl)c1OC2` had an IC50 of less than 100 nM. The EC50 in experiment [2] is less than 50 nM.

`O=C(NCc1ccccn1)c1cc2c(s1)-c1ccc(F)c(F)c1CC2` displayed an IC50 in experiment [1] of less than 50 nM. The EC50 in experiment [2] is less than 50 nM.

In experiment [1], `Cc1cc(C)c2c(c1)-c1sc(C(=O)O)cc1CC2` came in with an IC50 of less than 50 nM. This compound also displayed a 50% effective concentration (EC50) in experiment [2] of less than 50 nM.

In experiment [1], `O=C(O)c1cc2c(s1)-c1ccc(Cl)c(F)c1OC2` yielded an IC50 of less than 100 nM. This compound also gave an EC50 in experiment [2] of less than 50 nM.

`Cc1ccc2c(c1[N+](=O)[O-])CCc1cc(C(=O)O)sc1-2` registered an IC50 in experiment [1] of less than 50 nM. In experiment [2], this compound showed an EC50 of less than 50 nM.

In turn, `NC(=O)c1cc2c(s1)-c1cc(Cl)c(Cl)cc1CC2` returned an IC50 in experiment [1] of less than 1000 nM. In experiment [2], this compound had an EC50 of less than 50 nM.

Regarding `O=C(O)c1cc2c(s1)-c1cc(Cl)c(Cl)cc1CC2`, the IC50 in experiment [1] is less than 100 nM. The compound further came in with an EC50 in experiment [2] of less than 50 nM.

`O=C(O)c1cc2c(s1)-c1cc([N+](=O)[O-])ccc1OC2`: the IC50 in experiment [1] is less than 1000 nM. In experiment [2], the EC50 was less than 50 nM.

`NC(=O)c1cc2c(s1)-c1cc(F)ccc1CCC2` yielded an IC50 in experiment [1] of less than 50 nM. The same compound showed a concentration giving a half-maximal response (EC50) in experiment [2] of less than 50 nM.

In experiment [1], `O=C(O)c1cc2c(s1)-c1cc(F)ccc1CCC2` registered an IC50 of less than 1000 nM. In experiment [2], this compound registered an EC50 of less than 1000 nM.

`CC(C)(C#N)NC(=O)c1cc2c(s1)-c1ccccc1CC2` came in with an IC50 in experiment [1] of less than 1000 nM. In addition, the EC50 in experiment [2] is less than 500 nM.

The compound `O=C(NCCO)c1cc2c(s1)-c1ccccc1CCC2` returned an IC50 in experiment [1] of less than 100 nM. In experiment [2], this compound showed an EC50 of less than 100 nM.

`N#CCNC(=O)c1cc2c(s1)-c1ccccc1CC2` displayed an IC50 in experiment [1] of less than 50 nM. In experiment [2], the EC50 is less than 50 nM.

Consider `CNC(=O)c1cc2c(s1)-c1ccccc1CC2`, for which the IC50 in experiment [1] was less than 100 nM. In addition, the EC50 in experiment [2] was less than 50 nM.

The compound `CCOC(=O)c1cc2c(s1)-c1ccc(C)c(Cl)c1CC2` had a half-inhibitory concentration (IC50) in experiment [1] of less than 1000 nM. In experiment [2], the EC50 is less than 50 nM.

Turning to `CCOC(=O)c1cc2c(s1)-c1cc(C)cc(F)c1CC2`, in experiment [1], the IC50 was less than 1000 nM. This compound came in with an EC50 in experiment [2] of less than 50 nM.

With `CCOC(=O)c1cc2c(s1)-c1cc(C)cc(C)c1CC2`, the IC50 in experiment [1] is less than 2000 nM. This compound returned an EC50 in experiment [2] of less than 100 nM.

For the compound `CCOC(=O)c1cc2c(s1)-c1ccc(C)c([N+](=O)[O-])c1CC2`, in experiment [1], the IC50 is less than 100 nM. This compound gave an EC50 in experiment [2] of less than 50 nM.

`COC(=O)C1CN(C(=O)c2cc3c(s2)-c2cc(C)cc(F)c2CC3)CC1c1ccccc1` (centres unmarked) gave an IC50 in experiment [1] of less than 1000 nM. In addition, the EC50 in experiment [2] was less than 50 nM.

`COC(=O)CNC(=O)c1cc2c(s1)-c1ccccc1CC2` displayed an IC50 in experiment [1] of less than 1000 nM. Moreover, the EC50 in experiment [2] is less than 50 nM.

`COC(=O)CNC(=O)c1cc2c(s1)-c1cc(C)cc(C)c1CC2` registered an IC50 in experiment [1] of less than 2000 nM. Further, the EC50 in experiment [2] is less than 100 nM.

Values taken from patent publication US9624238B2, “4H-thieno[3,2-C]chromene-based inhibitors of Notum Pectinacetylesterase and methods of their use” (Lexicon Pharmaceuticals, Inc., priority 2011, dated 2017).
